Source: patent publication US11352345B2, “Cyclohexyl acid pyrazole azoles as LPA antagonists” (BRISTOL-MYERS SQUIBB COMPANY, priority 2017, dated 2022)
Where a name gives a salt, the structure may show the parent alone.

Target: T1, human LPA1 (Homo sapiens, UniProt Q92633)
T1 construct: expressed in transfected cells; host or cells: Chinese hamster ovary (CHO) cells
Assay: LPA1 functional antagonist assay (calcium flux)
Assay type: cell-based
Conditions: Chinese hamster ovary cells overexpressing human LPA1; calcium flux induced by 10 nM LPA; read-out: hLPA1 IC50
Protocol: The effectiveness of compounds of the present invention as LPA1 inhibitors can be determined in an LPA1 functional antagonist assay as follows:
Chinese hamster ovary cells overexpressing human LPA1 were plated overnight (15,000 cells/well) in poly-D-lysine coated 384-well microplates (Greiner bio-one, Cat #781946) in DMEM/F12 medium (Gibco, Cat #11039). Following overnight culture, cells were loaded with calcium indicator dye (AAT Bioquest Inc, Cat #34601) for 30 minutes at 37° C. The cells were then equilibrated to room temperature for 30 minutes before the assay. Test compounds solubilized in DMSO were transferred to 384 well non-binding surface plates (Corning, Cat #3575) using the Labcyte Echo acoustic dispense and diluted with assay buffer [1×HBSS with calcium/magnesium (Gibco Cat #14025-092), 20 mM HEPES (Gibco Cat #15630-080) and 0.1% fatty acid free BSA (Sigma Cat #A9205)] to a final concentration of 0.5% DMSO. Diluted compounds were added to the cells by FDSS6000 (Hamamatsu) at final concentrations ranging from 0.08 nM to 5 μM. and were then incubated for 20 min at room temperature at which time LPA (Avanti Polar Lipids Cat #857130C) was added at final concentrations of 10 nM to stimulate the cells.
The compound IC50 value was defined as the concentration of test compound which inhibited 50% of the calcium flux induced by LPA alone. IC50 values were determined by fitting data to a 4-parameter logistic equation (GraphPad Prism, San Diego Calif.).

T1 sequence (Q92633 whole entry): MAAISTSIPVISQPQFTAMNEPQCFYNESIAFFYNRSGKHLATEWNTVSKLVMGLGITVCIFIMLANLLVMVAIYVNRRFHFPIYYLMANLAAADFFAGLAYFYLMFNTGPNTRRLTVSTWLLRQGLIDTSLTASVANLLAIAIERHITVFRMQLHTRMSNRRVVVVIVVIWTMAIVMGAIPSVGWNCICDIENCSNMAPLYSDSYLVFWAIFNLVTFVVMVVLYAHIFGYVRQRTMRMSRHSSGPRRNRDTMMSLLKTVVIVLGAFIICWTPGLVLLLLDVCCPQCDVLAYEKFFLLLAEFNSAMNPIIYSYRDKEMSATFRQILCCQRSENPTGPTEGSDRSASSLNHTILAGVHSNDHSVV

Structure (SMILES)	IC50
Cc1nc(-c2cnn(C)c2CNc2cnn(-c3ccccc3)n2)ncc1O[C@H]1CCC[C@H](C(=O)O)C1 [Example 1, (1S,3S)-3-((4-methyl-2-(1-methyl-5-(((2-phenyl-2H-1,2,3-triazol-4-yl)amino)methyl)-1H-pyrazol-4-yl)pyrimidin-5-yl)oxy)cyclohexane-1-carboxylicacid]	35 nM
Cc1nc(-c2cnn(C)c2CNc2nc(C(C)C)ns2)ncc1O[C@H]1CCC[C@H](C(=O)O)C1 [Example 2, (1S,3S)-3-((2-(5-(((3-isopropyl-1,2,4-thiadiazol-5-yl)amino)methyl)-1-methyl-1H-pyrazol-4-yl)-4-methylpyrimidin-5-yl)oxy)cyclohexane-1-carboxylic acid]	1860 nM
CCCc1nsc(Nc2c(-c3ncc(O[C@H]4CCC[C@H](C(=O)O)C4)c(C)n3)cnn2C)n1 [Example 3, (1S,3S)-3-((4-methyl-2-(1-methyl-5-((3-propyl-1,2,4-thiadiazol-5-yl)amino)-1H-pyrazol-4-yl)pyrimidin-5-yl)oxy)cyclohexane-1-carboxylic acid]	437 nM
Cc1nc(-c2cnn(C)c2CNc2noc(CCC(C)C)n2)ncc1O[C@H]1CCC[C@H](C(=O)O)C1 [Example 4, (1S,3S)-3-((2-(5-(((5-isopentyl-1,2,4-oxadiazol-3-yl)amino)methyl)-1-methyl-1H-pyrazol-4-yl)-4-methylpyrimidin-5-yl)oxy)cyclohexane-1-carboxylic acid, bis TFA salt]	10 nM
Cc1nc(-c2cnn(C)c2Nc2nc(C3CC3)ns2)ncc1O[C@H]1CCC[C@H](C(=O)O)C1 [Example 5]	341 nM
CCCCc1nc(NCc2c(-c3ncc(O[C@H]4CCC[C@H](C(=O)O)C4)c(C)n3)cnn2C)no1 [Example 6]	31 nM
Cc1nc(-c2cnn(C)c2CNc2noc(CC3CCC3)n2)ncc1O[C@H]1CCC[C@H](C(=O)O)C1 [Example 7]	9 nM
Cc1nc(-c2cnn(C)c2CNc2ncn(-c3ccccc3)n2)ncc1O[C@H]1CCC[C@H](C(=O)O)C1 [Example 8]	91 nM
Cc1nc(-c2cnn(C)c2Cn2cc(CC3CC3)nn2)ncc1O[C@H]1CCC[C@H](C(=O)O)C1 [Example 9, (1S,3S)-3-((2-(5-((4-(cyclopropylmethyl)-1H-1,2,3-triazol-1-yl)methyl)-1-methyl-1H-pyrazol-4-yl)-4-methylpyrimidin-5-yl)oxy)cyclohexane-1-carboxylic acid]	636 nM
CCc1nc(-c2cnn(C)c2Cn2cc(Cc3ccccc3)nn2)ncc1O[C@H]1CCC[C@H](C(=O)O)C1 [Example 10]	26 nM
CCCCc1cn(Cc2c(-c3ncc(O[C@H]4CCC[C@H](C(=O)O)C4)c(CC)n3)cnn2C)nn1 [Example 11]	399 nM
CCc1nc(-c2cnn(C)c2Cn2cc(CC3CC3)nn2)ncc1O[C@H]1CCC[C@H](C(=O)O)C1 [Example 12]	230 nM
